Test results from patent US12595239B2, “Substituted isoxazoline derivatives” (BASF SE, priority 2021, dated 2026).

Tests used:
Assay type in all cases: in vivo
[1] = test system: Anthonomus grandis; assay: B.1 Boll weevil (Anthonomus grandis), 96-well microtiter plate diet test; conditions: 120 h, egg and larval mortality, 5 days, read-out: mortality in comparison with untreated controls
Experimental: For evaluating control of boll weevil, the test unit consisted of 96-well-microtiter plates containing an insect diet and 5-10 A. grandis eggs.
The compounds were formulated using a solution containing 75% v/v water and 25% v/v DMSO. Different concentrations of formulated compounds were sprayed onto the insect diet at 5 μl, using a custom-built micro atomizer, at two replications.
After application, microtiter plates were incubated at about 25±1° C. and about 75±5% relative humidity for 5 days. Egg and larval mortality were then visually assessed.

[2] = test system: Myzus persicae; assay: B.3 Green Peach Aphid (mixed life stages), systemic artificial diet test; conditions: 72 h, treated aphid diet, 3 days, read-out: mortality in comparison with untreated controls
From the text: For evaluating control of Green Peach Aphid through systemic means the test unit consisted of 96-well-microtiter plates containing liquid artificial diet under an artificial membrane. The compounds were formulated using a solution containing 75% v/v water and 25% v/v DMSO. Different concentrations of formulated compounds were pipetted into the aphid diet, using a custom-built pipette, at two replications. After application, 5-8 adult aphids were placed on the artificial membrane inside the microtiter plate wells. The aphids were then allowed to suck on the treated aphid diet and incubated at about 23±1° C. and about 50±5% relative humidity for 3 days. Aphid mortality and fecundity was then visually assessed.

[3] = test system: Heliothis virescens; assay: B.4 Tobacco Budworm, microtiter plate diet test; conditions: 120 h, egg and larval mortality, 5 days, read-out: mortality in comparison with untreated controls
Experimental: For evaluating control of Tobacco Budworm, the test unit consisted of 96-well-microtiter plates containing an insect diet and 15-25 H. virescens eggs. The compounds were formulated using a solution containing 75% v/v water and 25% v/v DMSO. Different concentrations of formulated compounds were sprayed onto the insect diet at 10 μl, using a custom-built micro atomizer, at two replications. After application, microtiter plates were incubated at about 28±1° C. and about 80±5% relative humidity for 5 days. Egg and larval mortality was then visually assessed.

[4] = test system: Aedes aegypti; assay: whole plant or invertebrate; conditions: 48 h, larval mortality, 2 days, read-out: mortality in comparison with untreated controls
Experimental: For evaluating control of Yellow Fever Mosquito, the test unit consisted of 96-well-microtiter plates containing 200 μl of tap water per well and 5-15 freshly hatched A. aegypti larvae. The active compounds were formulated using a solution containing 75% (v/v) water and 25% (v/v) DMSO. Different concentrations of formulated compounds or mixtures were sprayed onto the insect diet at 2.5 μl, using a custom-built micro atomizer, at two replications.
After application, microtiter plates were incubated at 28±1° C., 80±5% RH for 2 days. Larval mortality was then visually assessed.

[5] = test system: Plutella xylostella; assay: B.6 Diamond Back Moth, cabbage leaf disc dip test; conditions: foliar, 3rd instar larvae, 72 hours after treatment, read-out: mortality in comparison with untreated controls
How it was run: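 Cabbage leaf discs were dipped in compound in 1:1 water:acetone with 0.01% surfactant, air-dried, then infested with ten 3rd instar larvae. Mortality read at 72 h after treatment, with feeding damage scored on a 0–100% scale.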

[6] = test system: Dichromothrips corbetti; assay: B.7 Orchid Thrips, floral-immersion test; conditions: adult thrips, 72 hours after treatment, read-out: mortality in comparison with untreated controls
How it was run: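 Orchid petals were dipped in compound diluted in 1:1 acetone:water with 0.01% v/v Kinetic, dried, then sealed with about 20 lab-colony adult thrips. Arenas were held in the dark at about 28 °C, and percent mortality was scored 72 h after treatment.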

[7] = test system: Nezara viridula; assay: B.8 Green Soldier Stink Bug, soybean pod spray test; conditions: 120 h, late 3rd instar, after 5 days, read-out: mortality in comparison with untreated controls
Experimental: The active compound was dissolved at the desired concentration in a mixture of 1:1 (vol:vol) distilled water:aceteone. Surfactant (Kinetic) was added at a rate of 0.01% (vol/vol). The test solution was prepared at the day of use. Soybean pods were placed in 90×50 mm glass Petri dishes lined with moistened filter paper and inoculated with ten late 3rd instar N. viridula. Using a hand atomizer, an approximately 2 ml solution was sprayed into each Petri dish. Treated setup was kept at about 25-26° C. and relative humidity of about 65-70%. Percent mortality was recorded after 5 days.

[8] = test system: Tetranychus kanzawai; assay: B.10 Red Spider Mite, cowpea bean spray test; conditions: 72 hours after treatment, read-out: mortality in comparison with untreated controls
Experimental: The active compound was dissolved at the desired concentration in a mixture of 1:1 (vol:vol) distilled water:acetone. Add surfactant (Kinetic) was added at a rate of 0.01% (vol/vol). The test solution was prepared at the day of use. Potted cowpea beans of 4-5 days of age were cleaned with tap water and sprayed with I-2 ml of the test solution using air driven DeVilbiss® hand atomizer at 20-30 psi (≈1,38 to 2,07 bar). The treated plants were allowed to air dry and afterwards inoculated with 30 or more mites by clipping a cassava leaf section from rearing population. Treated plants were placed inside a holding room at about 25-26° C. and about 65-70% relative humidity. Percent mortality was assessed 72 hours after treatment.

[9] = test system: Bemisia argentifolii; assay: B.12 Silverleaf Whitefly (adults), cotton plant spray test; conditions: 72 h, 3 days after treatment, read-out: mortality in comparison with untreated controls
Experimental: The active compounds were formulated by a Tecan liquid handler in 100% cyclohexanone as a 10,000-ppm solution supplied in tubes. The 10,000-ppm solution was serially diluted in 100% cyclohexanone to make interim solutions. These served as stock solutions for which final dilutions were made by the Tecan in 50% acetone:50% water (v/v) into 5 or 10 ml glass vials. A nonionic surfactant (Kinetic®) was included in the solution at a volume of 0.01% (v/v). The vials were then inserted into an automated electrostatic sprayer equipped with an atomizing nozzle for application to plants/insects. Cotton plants at the cotyledon stage (one plant per pot) were sprayed by an automated electrostatic plant sprayer equipped with an atomizing spray nozzle. The plants were dried in the sprayer fume hood and then removed from the sprayer. Each pot was placed into a plastic cup and about 10 to 12 whitefly adults (approximately 3-5 days old) were introduced. The insects were collected using an aspirator and a nontoxic Tygon® tubing connected to a barrier pipette tip. The tip, containing the collected insects, was then gently inserted into the soil containing the treated plant, allowing insects to crawl out of the tip to reach the foliage for feeding. Cups were covered with a reusable screened lid. Test plants were maintained in a growth room at about 25° C. and about 20-40% relative humidity for 3 days, avoiding direct exposure to fluorescent light (14:10 light:dark photoperiod) to prevent trapping of heat inside the cup. Mortality was assessed 3 days after treatment, compared to untreated control plants.

O=C(Nc1ncc(F)cc1F)c1cc(OC2=NOC(c3cc(Cl)c(F)c(Cl)c3)(C(F)(F)F)C2)ccc1Cl (stereo not drawn) [II-8, 2-chloro-5-[[5-(3,5-dichloro-4-fluoro-phenyl)-5-(trifluoromethyl)-4H-isoxazol-3-yl]oxy]-N-(3,5-difluoro-2-pyridyl)benzamide]
≥ 75%: mortality at 2500 ppm [1] | mortality at 2500 ppm [2] | mortality at 2500 ppm [3] | mortality at 2500 ppm [4] | mortality at 300 ppm [5] | mortality at 300 ppm [6] | mortality at 300 ppm [7] | mortality at 300 ppm [8] | mortality at 300 ppm [9]
